Measured values as given in paper PMC6891286, “Towards the Development of an In vivo Chemical Probe for Cyclin G Associated Kinase (GAK)” (Molecules, 2019).

Legend:
Test in all cases: KINOMEscan
Format in all cases: binding
Conditions in all cases: 35 at 1 µM; read-out: % inhibition
[1] = biological target: T1, ABL1(F317I)-nonphosphorylated (Homo sapiens, UniProt P00519, F317I)
T1 construct: purchased Eurofins DiscoverX (KINOMEscan)
Description: (§1) KinomeScan Assay on 35 was performed as previously described at EuroFins DiscoverX (Fremont, CA, USA).

[2] = biological target: T2, ABL1(T315I)-nonphosphorylated (Homo sapiens, UniProt P00519, T315I)
T2 construct: purchased Eurofins DiscoverX (KINOMEscan)
Description: as §1

[3] = biological target: T3, ACVR1 (Homo sapiens, UniProt Q04771)
T3 construct: purchased Eurofins DiscoverX (KINOMEscan)
Description: as §1

[4] = biological target: T4, ALK (Homo sapiens, UniProt Q9UM73)
T4 construct: purchased Eurofins DiscoverX (KINOMEscan)
Description: as §1

[5] = biological target: T5, ASK1 (Homo sapiens, UniProt Q99683)
T5 construct: purchased Eurofins DiscoverX (KINOMEscan)
Description: as §1

[6] = biological target: T6, ASK2 (Homo sapiens, UniProt O95382)
T6 construct: purchased Eurofins DiscoverX (KINOMEscan)
Description: as §1

[7] = biological target: T7, AURKB (Homo sapiens, UniProt Q96GD4)
T7 construct: purchased Eurofins DiscoverX (KINOMEscan)
Description: as §1

[8] = biological target: T8, CAMK1D (Homo sapiens, UniProt Q8IU85)
T8 construct: purchased Eurofins DiscoverX (KINOMEscan)
Description: as §1

[9] = biological target: T9, CAMK1G (Homo sapiens, UniProt Q96NX5)
T9 construct: purchased Eurofins DiscoverX (KINOMEscan)
Description: as §1

[10] = biological target: T10, EGFR(L858R) (Homo sapiens, UniProt P00533, L858R)
T10 construct: purchased Eurofins DiscoverX (KINOMEscan)
Description: as §1

[11] = biological target: T11, EPHA7 (Homo sapiens, UniProt Q15375)
T11 construct: purchased Eurofins DiscoverX (KINOMEscan)
Description: as §1

[12] = biological target: T12, ERK1 (Homo sapiens, UniProt P27361)
T12 construct: purchased Eurofins DiscoverX (KINOMEscan)
Description: as §1

[13] = biological target: T13, FAK (Homo sapiens, UniProt Q05397)
T13 construct: purchased Eurofins DiscoverX (KINOMEscan)
Description: as §1

[14] = biological target: T14, FGFR1 (Homo sapiens, UniProt P11362)
T14 construct: purchased Eurofins DiscoverX (KINOMEscan)
Description: as §1

[15] = biological target: T15, FLT3(K663Q) (Homo sapiens, UniProt P36888, K663Q)
T15 construct: purchased Eurofins DiscoverX (KINOMEscan)
Description: as §1

[16] = biological target: T16, GCN2(Kin.Dom.2,S808G) (Homo sapiens, UniProt Q9P2K8, S808G)
T16 construct: GCN2(Kin.Dom.2,S808G); purchased Eurofins DiscoverX (KINOMEscan)
Description: as §1

[17] = biological target: T17, GRK4 (Homo sapiens, UniProt P32298)
T17 construct: purchased Eurofins DiscoverX (KINOMEscan)
Description: as §1

[18] = biological target: T18, HIPK4 (Homo sapiens, UniProt Q8NE63)
T18 construct: purchased Eurofins DiscoverX (KINOMEscan)
Description: as §1

[19] = biological target: T19, HPK1 (Homo sapiens, UniProt Q92918)
T19 construct: purchased Eurofins DiscoverX (KINOMEscan)
Description: as §1

[20] = biological target: T20, INSRR (Homo sapiens, UniProt P14616)
T20 construct: purchased Eurofins DiscoverX (KINOMEscan)
Description: as §1

[21] = biological target: T21, JNK3 (Homo sapiens, UniProt P53779)
T21 construct: purchased Eurofins DiscoverX (KINOMEscan)
Description: as §1

[22] = biological target: T22, KIT(L576P) (Homo sapiens, UniProt P10721, L576P)
T22 construct: purchased Eurofins DiscoverX (KINOMEscan)
Description: as §1

[23] = biological target: T23, MLCK (Homo sapiens, UniProt Q32MK0)
T23 construct: purchased Eurofins DiscoverX (KINOMEscan)
Description: as §1

[24] = biological target: T24, PAK3 (Homo sapiens, UniProt O75914)
T24 construct: purchased Eurofins DiscoverX (KINOMEscan)
Description: as §1

[25] = biological target: T25, PDGFRA (Homo sapiens, UniProt P16234)
T25 construct: purchased Eurofins DiscoverX (KINOMEscan)
Description: as §1

[26] = biological target: T26, PDPK1 (Homo sapiens, UniProt O15530)
T26 construct: purchased Eurofins DiscoverX (KINOMEscan)
Description: as §1

[27] = biological target: T27, PIP5K2C (Homo sapiens, UniProt Q8TBX8)
T27 construct: purchased Eurofins DiscoverX (KINOMEscan)
Description: as §1

[28] = biological target: T28, PLK1 (Homo sapiens, UniProt P53350)
T28 construct: purchased Eurofins DiscoverX (KINOMEscan)
Description: as §1

[29] = biological target: T29, PLK4 (Homo sapiens, UniProt O00444)
T29 construct: purchased Eurofins DiscoverX (KINOMEscan)
Description: as §1

[30] = biological target: T30, PRKX (Homo sapiens, UniProt P51817)
T30 construct: purchased Eurofins DiscoverX (KINOMEscan)
Description: as §1

[31] = biological target: T31, RET(V804M) (Homo sapiens, UniProt P07949, V804M)
T31 construct: purchased Eurofins DiscoverX (KINOMEscan)
Description: as §1

[32] = biological target: T32, RIOK1 (Homo sapiens, UniProt Q9BRS2)
T32 construct: purchased Eurofins DiscoverX (KINOMEscan)
Description: as §1

[33] = biological target: T33, RSK1(Kin.Dom.2-C-terminal) (Homo sapiens, UniProt Q15418)
T33 construct: RSK1(Kin.Dom.2-C-terminal); purchased Eurofins DiscoverX (KINOMEscan)
Description: as §1

[34] = biological target: T34, S6K1 (Homo sapiens, UniProt P23443)
T34 construct: purchased Eurofins DiscoverX (KINOMEscan)
Description: as §1

[35] = biological target: T35, STK35 (Homo sapiens, UniProt Q8TDR2)
T35 construct: purchased Eurofins DiscoverX (KINOMEscan)
Description: as §1

[36] = biological target: T36, STK36 (Homo sapiens, UniProt Q9NRP7)
T36 construct: purchased Eurofins DiscoverX (KINOMEscan)
Description: as §1

[37] = biological target: T37, TAOK1 (Homo sapiens, UniProt Q7L7X3)
T37 construct: purchased Eurofins DiscoverX (KINOMEscan)
Description: as §1

[38] = biological target: T38, TIE2 (Homo sapiens, UniProt Q02763)
T38 construct: purchased Eurofins DiscoverX (KINOMEscan)
Description: as §1

[39] = biological target: T39, TRKC (Homo sapiens, UniProt Q16288)
T39 construct: purchased Eurofins DiscoverX (KINOMEscan)
Description: as §1

[40] = biological target: T40, VEGFR2 (Homo sapiens, UniProt P35968)
T40 construct: purchased Eurofins DiscoverX (KINOMEscan)
Description: as §1

[41] = biological target: T41, YANK1 (Homo sapiens, UniProt Q8WU08)
T41 construct: purchased EuroFins DiscoverX (Fremont, CA, USA)
Description: as §1

[42] = biological target: T42, p38-delta (Homo sapiens, UniProt O15264)
T42 construct: purchased Eurofins DiscoverX (KINOMEscan)
Description: as §1

T7 sequence (Q96GD4 whole entry): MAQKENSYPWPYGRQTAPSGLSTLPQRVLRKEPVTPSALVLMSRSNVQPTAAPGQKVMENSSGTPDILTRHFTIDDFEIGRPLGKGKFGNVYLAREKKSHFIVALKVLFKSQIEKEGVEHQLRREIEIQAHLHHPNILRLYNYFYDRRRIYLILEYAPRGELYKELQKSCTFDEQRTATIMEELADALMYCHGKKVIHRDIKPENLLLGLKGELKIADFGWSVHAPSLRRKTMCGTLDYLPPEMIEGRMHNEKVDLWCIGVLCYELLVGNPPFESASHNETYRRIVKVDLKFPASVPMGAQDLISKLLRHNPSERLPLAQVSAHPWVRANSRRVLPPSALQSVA
T31 sequence (P07949 29-1114 V804M): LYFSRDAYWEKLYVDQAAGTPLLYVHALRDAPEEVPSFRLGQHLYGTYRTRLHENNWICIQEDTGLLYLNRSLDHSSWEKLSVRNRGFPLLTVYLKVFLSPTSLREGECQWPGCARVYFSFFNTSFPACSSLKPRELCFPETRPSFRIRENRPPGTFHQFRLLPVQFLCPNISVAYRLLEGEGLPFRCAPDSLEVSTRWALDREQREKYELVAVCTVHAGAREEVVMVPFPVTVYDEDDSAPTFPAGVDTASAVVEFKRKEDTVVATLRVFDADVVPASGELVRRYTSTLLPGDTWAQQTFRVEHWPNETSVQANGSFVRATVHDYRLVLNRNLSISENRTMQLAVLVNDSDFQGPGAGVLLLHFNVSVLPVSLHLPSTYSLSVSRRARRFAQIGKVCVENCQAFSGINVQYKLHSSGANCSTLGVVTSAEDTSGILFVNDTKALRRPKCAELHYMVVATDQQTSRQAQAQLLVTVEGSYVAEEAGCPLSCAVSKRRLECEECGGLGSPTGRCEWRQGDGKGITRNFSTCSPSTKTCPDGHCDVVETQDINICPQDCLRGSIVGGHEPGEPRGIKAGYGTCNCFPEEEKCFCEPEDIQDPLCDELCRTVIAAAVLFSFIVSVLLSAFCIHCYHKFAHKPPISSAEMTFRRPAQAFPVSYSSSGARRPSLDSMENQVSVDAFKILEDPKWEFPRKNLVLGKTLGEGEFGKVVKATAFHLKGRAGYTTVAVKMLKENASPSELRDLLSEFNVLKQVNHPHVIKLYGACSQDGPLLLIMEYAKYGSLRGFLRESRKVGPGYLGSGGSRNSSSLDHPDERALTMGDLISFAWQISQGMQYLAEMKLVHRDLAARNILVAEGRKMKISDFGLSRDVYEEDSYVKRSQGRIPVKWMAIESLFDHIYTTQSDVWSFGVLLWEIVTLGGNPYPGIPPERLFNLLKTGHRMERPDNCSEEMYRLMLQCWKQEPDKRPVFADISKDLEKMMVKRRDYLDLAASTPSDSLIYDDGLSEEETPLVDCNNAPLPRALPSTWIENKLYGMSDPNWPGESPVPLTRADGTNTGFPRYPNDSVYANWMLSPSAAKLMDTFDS
T41 sequence (Q8WU08 whole entry): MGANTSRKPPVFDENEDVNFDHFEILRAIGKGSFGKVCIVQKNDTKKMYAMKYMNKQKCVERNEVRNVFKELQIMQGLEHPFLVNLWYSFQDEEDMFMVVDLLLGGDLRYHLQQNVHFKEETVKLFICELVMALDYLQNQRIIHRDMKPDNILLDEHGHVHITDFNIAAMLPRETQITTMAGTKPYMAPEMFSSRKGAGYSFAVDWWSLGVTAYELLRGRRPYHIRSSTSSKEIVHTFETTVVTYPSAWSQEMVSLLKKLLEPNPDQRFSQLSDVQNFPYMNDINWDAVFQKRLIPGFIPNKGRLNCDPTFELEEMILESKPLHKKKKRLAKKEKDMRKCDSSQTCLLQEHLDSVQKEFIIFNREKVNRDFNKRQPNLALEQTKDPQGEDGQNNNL
T11 sequence (Q15375 28-998): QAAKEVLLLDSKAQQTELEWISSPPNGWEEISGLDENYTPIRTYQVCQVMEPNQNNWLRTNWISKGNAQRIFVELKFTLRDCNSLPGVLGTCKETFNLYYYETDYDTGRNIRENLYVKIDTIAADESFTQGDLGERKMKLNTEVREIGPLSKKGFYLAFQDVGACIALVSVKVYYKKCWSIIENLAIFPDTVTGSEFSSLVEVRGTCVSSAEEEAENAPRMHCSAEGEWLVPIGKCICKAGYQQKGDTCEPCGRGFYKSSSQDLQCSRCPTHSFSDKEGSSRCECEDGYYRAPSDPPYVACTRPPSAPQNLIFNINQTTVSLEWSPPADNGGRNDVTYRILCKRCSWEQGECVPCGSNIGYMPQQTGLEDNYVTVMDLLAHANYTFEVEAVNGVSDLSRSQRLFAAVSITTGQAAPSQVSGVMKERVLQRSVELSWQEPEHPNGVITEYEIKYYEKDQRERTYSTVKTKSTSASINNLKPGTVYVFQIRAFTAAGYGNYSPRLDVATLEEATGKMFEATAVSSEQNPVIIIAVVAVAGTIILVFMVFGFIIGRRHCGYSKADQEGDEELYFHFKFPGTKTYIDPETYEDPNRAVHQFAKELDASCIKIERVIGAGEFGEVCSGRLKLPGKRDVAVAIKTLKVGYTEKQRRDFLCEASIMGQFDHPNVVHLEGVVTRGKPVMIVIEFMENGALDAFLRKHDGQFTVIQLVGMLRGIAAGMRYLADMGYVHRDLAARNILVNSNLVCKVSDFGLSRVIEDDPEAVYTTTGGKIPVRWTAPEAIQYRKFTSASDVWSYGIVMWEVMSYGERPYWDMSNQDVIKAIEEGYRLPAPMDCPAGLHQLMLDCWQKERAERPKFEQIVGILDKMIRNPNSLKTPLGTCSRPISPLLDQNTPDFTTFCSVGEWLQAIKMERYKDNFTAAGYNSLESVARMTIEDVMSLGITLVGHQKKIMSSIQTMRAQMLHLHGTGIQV
T17 sequence (P32298 whole entry): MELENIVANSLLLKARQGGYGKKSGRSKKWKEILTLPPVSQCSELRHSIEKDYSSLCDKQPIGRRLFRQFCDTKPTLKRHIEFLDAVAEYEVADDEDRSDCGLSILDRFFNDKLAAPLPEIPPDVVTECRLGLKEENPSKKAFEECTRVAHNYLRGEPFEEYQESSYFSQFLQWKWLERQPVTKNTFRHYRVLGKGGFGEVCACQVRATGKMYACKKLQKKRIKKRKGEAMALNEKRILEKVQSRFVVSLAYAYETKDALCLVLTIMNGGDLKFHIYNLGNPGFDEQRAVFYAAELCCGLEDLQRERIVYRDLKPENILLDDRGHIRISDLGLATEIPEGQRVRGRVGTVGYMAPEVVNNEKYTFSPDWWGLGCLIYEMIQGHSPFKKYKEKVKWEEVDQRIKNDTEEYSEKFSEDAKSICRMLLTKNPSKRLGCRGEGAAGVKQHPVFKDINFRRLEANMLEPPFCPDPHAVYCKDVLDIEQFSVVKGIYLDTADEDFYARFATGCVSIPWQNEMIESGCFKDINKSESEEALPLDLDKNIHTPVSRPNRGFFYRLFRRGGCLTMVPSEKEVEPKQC
T30 sequence (P51817 whole entry): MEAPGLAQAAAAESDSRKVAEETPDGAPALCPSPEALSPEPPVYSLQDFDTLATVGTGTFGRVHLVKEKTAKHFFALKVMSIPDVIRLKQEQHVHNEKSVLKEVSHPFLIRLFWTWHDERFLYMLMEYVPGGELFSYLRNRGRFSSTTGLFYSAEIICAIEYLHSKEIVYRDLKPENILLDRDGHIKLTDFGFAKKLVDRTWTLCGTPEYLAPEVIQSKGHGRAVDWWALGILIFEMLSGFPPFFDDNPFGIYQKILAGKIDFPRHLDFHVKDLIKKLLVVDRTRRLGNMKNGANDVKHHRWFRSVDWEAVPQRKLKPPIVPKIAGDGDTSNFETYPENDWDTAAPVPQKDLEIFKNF
T32 sequence (Q9BRS2 whole entry): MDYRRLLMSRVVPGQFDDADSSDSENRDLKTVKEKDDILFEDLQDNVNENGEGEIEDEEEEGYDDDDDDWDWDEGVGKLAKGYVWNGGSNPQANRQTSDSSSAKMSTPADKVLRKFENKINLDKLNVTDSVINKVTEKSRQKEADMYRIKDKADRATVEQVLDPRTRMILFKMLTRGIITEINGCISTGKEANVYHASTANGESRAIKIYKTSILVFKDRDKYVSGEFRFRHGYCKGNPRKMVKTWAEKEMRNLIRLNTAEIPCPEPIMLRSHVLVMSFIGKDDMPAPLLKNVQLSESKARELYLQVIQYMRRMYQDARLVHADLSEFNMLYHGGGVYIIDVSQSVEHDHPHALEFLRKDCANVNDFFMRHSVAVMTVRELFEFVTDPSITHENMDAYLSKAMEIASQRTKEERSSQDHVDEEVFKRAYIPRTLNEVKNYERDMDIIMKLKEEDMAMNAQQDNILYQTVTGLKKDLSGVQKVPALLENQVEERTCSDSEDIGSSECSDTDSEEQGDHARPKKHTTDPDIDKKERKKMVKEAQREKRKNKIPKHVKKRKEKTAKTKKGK
T3 sequence (Q04771 21-509): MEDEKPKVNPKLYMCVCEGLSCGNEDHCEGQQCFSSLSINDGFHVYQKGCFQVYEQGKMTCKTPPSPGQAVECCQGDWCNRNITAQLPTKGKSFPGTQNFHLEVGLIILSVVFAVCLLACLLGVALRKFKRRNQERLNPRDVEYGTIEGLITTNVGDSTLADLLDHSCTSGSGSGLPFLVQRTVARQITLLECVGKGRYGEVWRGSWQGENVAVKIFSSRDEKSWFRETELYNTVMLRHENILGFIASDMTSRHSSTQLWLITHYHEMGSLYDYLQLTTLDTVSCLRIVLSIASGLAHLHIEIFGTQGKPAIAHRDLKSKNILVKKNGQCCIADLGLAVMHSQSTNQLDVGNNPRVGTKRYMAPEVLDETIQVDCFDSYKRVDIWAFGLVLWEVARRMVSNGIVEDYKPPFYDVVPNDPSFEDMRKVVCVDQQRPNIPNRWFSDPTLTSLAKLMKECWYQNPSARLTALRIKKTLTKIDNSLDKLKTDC

**Q.** Which activity at 1 µM [1] does the source give for `Brc1ccc2nccc(Nc3ccc4cn[nH]c4c3)c2c1` [Compound 35, 6-Bromo-N-(1H-indazol-6-yl)quinolin-4-amine] here?
**A.** 77%

**Q.** What about the activity at 1 µM [2] of the same compound?
**A.** 100%

**Q.** And the activity at 1 µM [3]?
**A.** 97%

**Q.** And the activity at 1 µM [4]?
**A.** 100%

**Q.** And the activity at 1 µM [5]?
**A.** 100%

**Q.** What about the activity at 1 µM [6] of the same compound?
**A.** 100%

**Q.** What about the activity at 1 µM [7] of the same compound?
**A.** 90%

**Q.** What about the activity at 1 µM [8] of the same compound?
**A.** 100%

**Q.** And the activity at 1 µM [9]?
**A.** 100%

**Q.** What about the activity at 1 µM [10] of the same compound?
**A.** 100%

**Q.** And the activity at 1 µM [11]?
**A.** 100%

**Q.** And the activity at 1 µM [12]?
**A.** 100%

**Q.** And the activity at 1 µM [13]?
**A.** 99%

**Q.** What about the activity at 1 µM [14] of the same compound?
**A.** 100%

**Q.** And the activity at 1 µM [15]?
**A.** 97%

**Q.** And the activity at 1 µM [16]?
**A.** 59%

**Q.** What about the activity at 1 µM [17] of the same compound?
**A.** 100%

**Q.** What about the activity at 1 µM [18] of the same compound?
**A.** 57%

**Q.** And the activity at 1 µM [19]?
**A.** 100%

**Q.** And the activity at 1 µM [20]?
**A.** 100%

**Q.** And the activity at 1 µM [21]?
**A.** 100%

**Q.** What about the activity at 1 µM [22] of the same compound?
**A.** 100%

**Q.** What about the activity at 1 µM [23] of the same compound?
**A.** 100%

**Q.** What about the activity at 1 µM [24] of the same compound?
**A.** 100%

**Q.** And the activity at 1 µM [25]?
**A.** 100%

**Q.** What about the activity at 1 µM [26] of the same compound?
**A.** 100%

**Q.** And the activity at 1 µM [27]?
**A.** 95%

**Q.** And the activity at 1 µM [28]?
**A.** 100%

**Q.** And the activity at 1 µM [29]?
**A.** 100%

**Q.** What about the activity at 1 µM [30] of the same compound?
**A.** 100%

**Q.** What about the activity at 1 µM [31] of the same compound?
**A.** 100%

**Q.** And the activity at 1 µM [32]?
**A.** 100%

**Q.** What about the activity at 1 µM [33] of the same compound?
**A.** 57%

**Q.** And the activity at 1 µM [34]?
**A.** 91%

**Q.** What about the activity at 1 µM [35] of the same compound?
**A.** 100%

**Q.** And the activity at 1 µM [36]?
**A.** 100%

**Q.** What about the activity at 1 µM [37] of the same compound?
**A.** 95%

**Q.** What about the activity at 1 µM [38] of the same compound?
**A.** 100%

**Q.** What about the activity at 1 µM [39] of the same compound?
**A.** 82%

**Q.** And the activity at 1 µM [40]?
**A.** 100%

**Q.** What about the activity at 1 µM [41] of the same compound?
**A.** 100%

**Q.** What about the activity at 1 µM [42] of the same compound?
**A.** 100%
